Measured values taken from ChEMBL document CHEMBL1136521, “Tetrahydroquinoline-based selective estrogen receptor modulators (SERMs)” (Bioorg Med Chem Lett, 2003).

Tests used:
Estrogen receptor beta = Estrogen receptor beta (Homo sapiens, UniProt Q92731)
Description: Binding affinity for estrogen receptor beta

Estrogen receptor [1] = target: T1, Estrogen receptor (Homo sapiens, UniProt P03372)
T1 sequence (P03372 whole entry): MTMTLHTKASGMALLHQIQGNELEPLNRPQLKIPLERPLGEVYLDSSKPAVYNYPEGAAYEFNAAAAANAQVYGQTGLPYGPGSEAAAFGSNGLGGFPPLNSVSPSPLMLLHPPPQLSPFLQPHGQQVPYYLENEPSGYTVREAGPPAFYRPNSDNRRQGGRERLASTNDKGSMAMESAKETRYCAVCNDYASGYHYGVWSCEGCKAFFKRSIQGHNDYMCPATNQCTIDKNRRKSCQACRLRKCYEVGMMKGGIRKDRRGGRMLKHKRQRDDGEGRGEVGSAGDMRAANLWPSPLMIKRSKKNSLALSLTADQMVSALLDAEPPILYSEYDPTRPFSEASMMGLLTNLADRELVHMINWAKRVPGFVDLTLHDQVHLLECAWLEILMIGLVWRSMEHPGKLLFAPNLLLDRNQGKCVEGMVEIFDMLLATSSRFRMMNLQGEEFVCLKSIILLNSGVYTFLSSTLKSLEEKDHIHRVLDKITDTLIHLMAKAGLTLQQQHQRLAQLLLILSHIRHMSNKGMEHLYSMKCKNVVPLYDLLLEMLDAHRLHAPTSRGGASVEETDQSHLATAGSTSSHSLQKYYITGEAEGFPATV
Description: Binding affinity for estrogen receptor alpha

Estrogen receptor [2] = target: Estrogen receptor (Homo sapiens, UniProt Q92731+P03372)
Description: Inhibition of estradiol-stimulated MCF-7 breast adenocarcinoma cell proliferation

Estrogen receptor beta, sequence (Q92731 whole entry): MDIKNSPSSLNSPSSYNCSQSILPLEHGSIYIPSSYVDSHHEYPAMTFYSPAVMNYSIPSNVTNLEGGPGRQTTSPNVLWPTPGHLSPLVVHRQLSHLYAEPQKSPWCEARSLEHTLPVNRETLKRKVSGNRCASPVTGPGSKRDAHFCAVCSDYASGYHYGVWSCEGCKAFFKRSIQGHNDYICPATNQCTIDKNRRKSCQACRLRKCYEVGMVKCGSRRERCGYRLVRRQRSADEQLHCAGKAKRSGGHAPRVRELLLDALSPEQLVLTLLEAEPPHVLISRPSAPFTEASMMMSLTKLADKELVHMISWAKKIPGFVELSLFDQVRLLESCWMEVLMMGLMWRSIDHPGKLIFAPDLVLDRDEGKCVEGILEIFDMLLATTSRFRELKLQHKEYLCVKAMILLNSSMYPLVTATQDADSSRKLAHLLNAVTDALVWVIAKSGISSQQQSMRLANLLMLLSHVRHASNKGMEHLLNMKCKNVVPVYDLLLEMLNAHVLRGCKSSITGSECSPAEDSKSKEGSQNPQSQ

Row | Ki (Estrogen receptor beta) | Ki (Estrogen receptor [1]) | IC50 (Estrogen receptor [2]) | Compound
1 | 4 nM | 1.7 nM | 490 nM | Oc1ccc2c(c1)CCC(c1ccccc1)N2Cc1ccc(OCCN2CCCCC2)cc1 (stereo not given)
2 | > 1000 nM | 37 nM | 590 nM | O=C(c1ccc(OCCN2CCCCC2)cc1)N1c2ccc(O)cc2CCC1c1cccc(O)c1 (stereo not given)
3 | 35 nM | 310 nM | – | Oc1ccc(-c2ccc3cc(O)ccc3n2)cc1
4 | > 1000 nM | – | 990 nM | O=C(c1ccc(OCCN2CCCCC2)cc1)N1c2ccc(O)cc2CCC1c1ccc(O)cc1 (stereo not given)
5 | – | 1.1 nM | 68 nM | Oc1ccc(C2CCc3cc(O)ccc3N2Cc2ccc(OCCN3CCCC3)cc2)cc1 (stereo not given)
6 | 5.5 nM | – | – | Oc1cccc(C2CCc3cc(O)ccc3N2Cc2ccc(OCCN3CCCCC3)cc2)c1 (stereo not given)

Row | Compound | Ki (Estrogen receptor beta) | Ki (Estrogen receptor [1]) | IC50 (Estrogen receptor [2])
7 | Oc1ccc(C2CCc3cc(O)ccc3N2)cc1 (stereo not given) | 65 nM | 170 nM | –
